Type in all cases: in vivo, rat
In data set [1] the test system is prostate, seminal vesicles and levator ani muscle. Nature of the data set: Androgenic and anabolic activity in intact male rats, daily oral gavage. How it is done: Male Sprague-Dawley rats weighing approximately 200 g were purchased from Harlan Bioproducts for Science (Indianapolis, Ind.). The animals were maintained on a 12 h light/dark cycle with food (7012C LM-485 Mouse/Rat Sterilizable Diet, Harlan Teklad, Madison, Wis.) and water available ad libitum. The anabolic and androgenic activity of compound of Formula VIII in intact animals was tested, as well as a dose response evaluation in acutely orchidectomized (ORX) animals. Regenerative effects of the compound of Formula VIII in chronically (9 days) ORX rats was similarly evaluated.
(§1) The test article for this study was weighed and dissolved in 10% DMSO (Fisher) diluted with PEG 300 (Acros Organics, NJ) for preparation of the appropriate dosage concentrations. The animals were housed in groups of 2 to 3 animals per cage. Animals were randomly assigned to one of seven groups consisting of 4 to 5 animals per group. Control groups (intact and ORX) were administered vehicle daily. Compound of Formula VIII was administered via oral gavage at doses of 0.01, 0.03, 0.1, 0.3, 0.75, and 1 mg/day to both intact and ORX groups. Where appropriate, animals were castrated on day one of the study. Treatment with compound of Formula VIII began nine days post ORX and was administered daily via oral gavage for fourteen days.
(§2) The animals were sacrificed under anesthesia (ketamine/xyalzine, 87:13 mg/kg) and body weights were recorded. In addition, ventral prostate, seminal vesicles, and levator ani muscle were removed, individually weighed, normalized to body weight, and expressed as a percentage of intact control. Student's T-test was used to compare individual dose groups to the intact control group. Significance was defined a priori as a P-value <0.05. Ventral prostate and seminal vesicle weights were evaluated as a measure of androgenic activity, whereas levator ani muscle weight was evaluated as a measure of anabolic activity. Blood was collected from the abdominal aorta, centrifuged, and sera were frozen at −80° C. prior to determination of serum hormone levels. Serum luteinizing hormone (LH) and follicle stimulating hormone (FSH) concentrations were determined.
Male Sprague-Dawley rats weighing approximately 200 g were purchased from Harlan Bioproducts for Science (Indianapolis, Ind.). The animals were maintained on a 12 h light/dark cycle with food (7012C LM-485 Mouse/Rat Sterilizable Diet, Harlan Teklad, Madison, Wis.) and water available ad libitum. Anabolic and androgenic activity of compound of Formula IX in intact animals was evaluated, and the dose response in acutely orchidectomized (ORX) animals was evaluated as well. Regenerative effects of compound of Formula IX in chronically (9 days) ORX rats were also assessed.
The compound was weighed and dissolved in 10% DMSO (Fisher) diluted with PEG 300 (Acros Organics, NJ) for preparation of the appropriate dosage concentrations. The animals were housed in groups of 2 to 3 animals per cage. Intact and ORX animals were randomly assigned to one of seven groups consisting of 4 to 5 animals per group. Control groups (intact and ORX) were administered vehicle daily. Compound of Formula IX was administered via oral gavage at doses of 0.01, 0.03, 0.1, 0.3, 0.75, and 1 mg/day to both intact and ORX groups.
Castrated animals (on day one of the study) were randomly assigned to dose groups (4-5 animals/group) of 0.01, 0.03, 0.1, 0.3, 0.75, and 1 mg/day, for dose-response evaluation. Dosing began nine days post ORX and was administered daily via oral gavage for fourteen days. The animals were sacrificed under anesthesia (ketamine/xyalzine, 87:13 mg/kg) after a 14-day dosing regimen, and body weights were recorded. In addition, ventral prostate, seminal vesicles, and levator ani muscle were removed, individually weighed, normalized to body weight, and expressed as a percentage of intact control. Student's T-test was used to compare individual dose groups to the intact control group. […]

The test system is the same in data set [2]. Nature of the data set: Androgenic and anabolic activity in castrated (ORX) male rats, daily oral gavage for fourteen days. The following applies: castrated rats, comparators. How it is done:
Male Sprague-Dawley rats weighing approximately 200 g were purchased from Harlan Bioproducts for Science (Indianapolis, Ind.). […] The anabolic and androgenic activity of compound of Formula VIII in intact animals was tested, as well as a dose response evaluation in acutely orchidectomized (ORX) animals. Regenerative effects of the compound of Formula VIII in chronically (9 days) ORX rats was similarly evaluated.
as §1, with “The animals were housed in groups of 2 to 3 animals per cage.” left out
as §2, with “In” for “The animals were sacrificed under anesthesia (ketamine/xyalzine, 87:13 mg/kg) and body weights were recorded. In”
Male Sprague-Dawley rats weighing approximately 200 g were purchased from Harlan Bioproducts for Science (Indianapolis, Ind.). […] Anabolic and androgenic activity of compound of Formula IX in intact animals was evaluated, and the dose response in acutely orchidectomized (ORX) animals was evaluated as well. Regenerative effects of compound of Formula IX in chronically (9 days) ORX rats were also assessed.
The compound was weighed and dissolved in 10% DMSO (Fisher) diluted with PEG 300 (Acros Organics, NJ) for preparation of the appropriate dosage concentrations. […] Intact and ORX animals were randomly assigned to one of seven groups consisting of 4 to 5 animals per group. Control groups (intact and ORX) were administered vehicle daily. Compound of Formula IX was administered via oral gavage at doses of 0.01, 0.03, 0.1, 0.3, 0.75, and 1 mg/day to both intact and ORX groups.
Castrated animals (on day one of the study) were randomly assigned to dose groups (4-5 animals/group) of 0.01, 0.03, 0.1, 0.3, 0.75, and 1 mg/day, for dose-response evaluation. Dosing began nine days post ORX and was administered daily via oral gavage for fourteen days. […] In addition, ventral prostate, seminal vesicles, and levator ani muscle were removed, individually weighed, normalized to body weight, and expressed as a percentage of intact control. Student's T-test was used to compare individual dose groups to the intact control group. Significance was defined a priori as a P-value <0.05. As a measure of androgenic activity, ventral prostate and seminal vesicle weights were evaluated, whereas levator ani muscle weight was evaluated as a measure of anabolic activity. Blood was collected from the abdominal aorta, centrifuged, and sera were frozen at −80° C. prior to determination of serum hormone levels. Serum lutenizing hormone (LH) and follicle stimulating hormone (FSH) concentrations were determined.
Male Sprague-Dawley rats weighing approximately 200 g were purchased from Harlan Bioproducts for Science (Indianapolis, Ind.).

The test system is the same in data set [3]. Nature of the data set: Androgenic and anabolic effects in intact, hemi-orchidectomized and castrated rats, subdermal osmotic pumps, 14 days. The note with it: 0.5 mg/day; for Levator Ani weight / prostate weight / seminal vesicle weight: n = 5. How it is done:
Male Sprague-Dawley rats were purchased from Harlan Biosciences (Indianapolis, Ind.). The animals were maintained on a 12 h cycle of light and dark with food and water available ad libitum. All animal studies were reviewed and approved. Immature male Sprague-Dawley rats weighing 187 to 214 g were randomly distributed into 9 groups of 5 animals. One day before the initiation of drug treatment, groups 4 through 6 and groups 7 through 9 received unilateral or bilateral orchidectomy, respectively, via a midline scrotal incision. […] All drugs given to animals were freshly prepared as solutions in polyethylene glycol 300 (PEG 300). Groups 4 and 7 received treatment with vehicle alone (i.e., PEG 300). […] Animals in groups 2, 5, and 8 received compound of Formula XII (0.5 mg/day) via implantation of subdermal osmotic pumps. After 14 days of drug treatment, rats were weighed, anesthetized, and sacrificed. The ventral prostates, seminal vesicles, and levator ani muscle were removed and weighed. Osmotic pumps were also removed from animals to check for correct pump operation. The weights of all organs were normalized to body weight, and analyzed for any statistically significant differences between groups using single-factor ANOVA with the alpha value set a priori at p<0.05. The weights of prostates and seminal vesicles were used as indices for evaluation of androgenic activity, and the levator ani muscle weight was used to evaluate the anabolic activity. Statistical analyses of parameters from complete blood count or serum chemical profiling, wherever applicable, were performed by single-factor ANOVA with the alpha value set a priori at p<0.05.

This note sets out measurements from patent US20180353460A1, “METHODS OF TREATING UROLOGICAL DISORDERS USING SARMs” (priority 2014, published 2018).

Several values for one entry are separate records, joined by “and”; a condition that tells them apart may be missing. Equal values may be shown once.

With `C[C@](O)(COc1ccc(Cl)c(F)c1)C(=O)Nc1ccc(C#N)c(C(F)(F)F)c1` [XIV, (S)-3-(4-chloro-3-fluorophenoxy)-N-(4-cyano-3-(trifluoromethyl)phenyl)-2-hydroxy-2-methylpropanamide], the “levator ani muscle weight” value is 100%±10% in data set [1] (0.01 mg/day); 98%±7% in data set [1] (0.03 mg/day); 110%±5% in data set [1] (0.1 mg/day); 110%±5% in data set [1] (0.3 mg/day); 125%±10% in data set [1] (0.75 mg/day); 129%±10% in data set [1] (1 mg/day). In addition, the prostate weight in data set [1] (0.01 mg/day) is 117%±20%; in data set [1] (0.03 mg/day), 98%±15%; in data set [1] (0.1 mg/day) it was 82%±20%; in data set [1] (0.3 mg/day), 62%±5%; in data set [1] (0.75 mg/day), 107%±30%; in data set [1] (1 mg/day), 110%±14%.
Consider `CC(=O)Nc1ccc(OC[C@](C)(O)C(=O)Nc2ccc([N+](=O)[O-])c(C(F)(F)F)c2)cc1` [XII, S-3-(4-acetylaminophenoxy)-2-hydroxy-2-methyl-N-(4-nitro-3-trifluoromethylphenyl) propionamide], for which the “maximal stimulation of levator ani muscle weight” value in data set [2] was 101%. Moreover, the adverse pharmacologic effects entry in data set [3] is on record as “No adverse pharmacologic effects were observed”. Besides, in data set [3] (Castrated rats), the “Levator Ani weight” value was 100.65 ± 10.86 % of intact control, the prostate weight is recorded as 32.55 ± 11.65 % of intact control and the “seminal vesicle weight” value was 16.47 ± 5.21 % of intact control. In addition, in data set [3] (Hemi-castrated rats), the “Levator Ani weight” value was 108 % of intact control and 108.10 ± 8.92 % of intact control; the prostate weight is 75 % of intact control and 74.69 ± 8.44 % of intact control; the “seminal vesicle weight” value was 79 % of intact control and 78.55 ± 13.58 % of intact control. In data set [3] (Intact rats), the “Levator Ani weight” value is given as 109.15 ± 14.68 % of intact control; the prostate weight was 79 % of intact control and 79.41 ± 9.32 % of intact control; the “seminal vesicle weight” value is listed as 90.54 ± 12.10 % of intact control.
